Source: patent EP2662079A1 (Ordway Research Institute, Inc., priority 2012, dated 2013)

Tests used:
U87MG cells = assay: Clonogenic survival after 250 kVp x-irradiation; type: cell-based, human
Procedure: To irradiate culture flasks, a Philips 250 kVp x-ray machine (Philips Corp., Fall River, MA) operated at 250 kVp and 15 mA with added filtration of a 0.4 mm Thoreaus filter was used. The target to source distance was 30 cm. Dose rates were measured using an R-meter (Victoreen Co., Cleveland, OH), and converted to absorbed (Gy) doses using appropriate temperature, pressure, and R to Gy conversion factors. The dose rate was approximately 1 Gy/min. Flasks were irradiated after being taken from a 37°C environment and moved to the x-ray source. Movement at ambient temperature took approximately 1-2 min. Cells were next placed on ice and allowed to cool for 5 min. Lastly, flasks were placed in the Philips irradiator on top of a 2 mm thickness of Lucite which was on top of a layer of crushed ice. […]
For SHMT analysis, data lying at or below a fractional survival (FxS) value of 0.368 were fit using a linear regression analysis of the log survival data versus linear dose. From this fit the extrapolation number (n), the quasi-threshold dose (Dq, Gy) and the inverse of the inactivation slope (Do, Gy) were derived.
For LQ analyses, survival data lying between the fractional survivals of 1.00 and 0.05 were used. The log survival data were transformed to a linear form using the relationship (- ln FxS/D) and plotted against D. A linear regression analysis was performed to yield the LQ equation along with the 95% confidence limits on the γ-intercept (alpha) and the slope (beta) using a t-table with the appropriate (N-1) degrees of freedom. (See Goldstein A. Biostatistics, Academic Press, 1995.)

MDA-MB-231 cells = assay: Cell proliferation in perfusion bellows cell culture system; type: cell-based; conditions: Homo sapiens, 10^-6 M (Tetrac equivalent), added at day 0, by day 9
Procedure: Tetrac and nanoparticulate Tetrac. Tetrac was custom-synthesized by Peptido GMBH (Bembach, Germany). The proprietary Tetrac nanoparticle was custom-synthesized by covalently-bonding of the outer ring hydroxyl of Tetrac to PLGA via an intervening linker. […] Cell culture for definition of effects of Tetrac formulations on tumor cell proliferation. MDA-MB-231 cells were purchased from ATCC (Manassas, VA). Cells were maintained until use in DMEM that contained 10% FBS. The incubator conditions were 5% CO2/95% 02 and 37° C. The action of unmodified Tetrac and nanoparticulate on MDA-MB-231 cells was determined in a perfusion bellows cell culture system we have recently described for quantitating pharmaceutical agent pharmacodynamics in vitro. (See Lin et al., J Steroid Biochem Mol Biol 113: 182-188 (2009)). In brief, the cell culture system is a disposable bioreactor capable of high density cell culture for studies of anti-cancer drugs. Bellows-induced alternate flow of culture medium and air through porous matrices where cells are grown provides a relatively low shear, high aeration, foam-free culture environment. Medium level is raised and lowered to submerge and expose matrices to create a dynamic interface between air and media on the cell surface. […] Flakes thereafter were sampled at regular intervals (Figure 44), subjected to trypsinization and the harvested cells counted. […]

O=C(O)Cc1cc(I)c(Oc2cc(I)c(O)c(I)c2)c(I)c1 [Tetrac, 3,3',5,5'-tetraiodothyroacetic acid]
increase of α (ratio of the alpha values) (U87MG cells): 3.6 fold
increase of β (U87MG cells): 4.8 fold
median sensitization factor (U87MG cells): 3.6
ratio of relative survival values at 2 Gy (U87MG cells): 4.6
reduction of the DQ value (U87MG cells): 100%
reduction of the Do value (U87MG cells): 31%
α (U87MG cells; LQ, Tetrac treated cells): 0.817 (± 0.091)
β (U87MG cells; LQ, Tetrac treated cells): 0.076 (± 0.006)
DQ (Gy) (U87MG cells; SHMT, Tetrac treated cells): 0.00 ± 0.22 Gy
Do (Gy) (U87MG cells; SHMT, Tetrac treated cells): 1.09 ± 0.36 Gy
relative survival at 2 Gy (U87MG cells; Tetrac treated cells (control 59.6)): 12.8
isoeffect comparison ratio (U87MG cells; at 10% survival): 2.2
average sensitization factor (U87MG cells; average of 3 comparisons, range of 2.2 to 4.6): 3.5
inhibition at 1 µM (MDA-MB-231 cells): > 30%
